Read-outs that look alike come from different tables or passages of the source.
Biological target: T1, VAV1 (Homo sapiens, UniProt P15498+Q96SW2)
T1 construct: A heterozygous VAV1 C-terminal HiBiT knock-in pool was generated at Monte Rosa Therapeutics from a clonal Jurkat cell; endogenous in cells; host or cells: Jurkat clone stably expressing LgBiT, homozygous GSPT1-G575N; heterozygous VAV1-HiBiT knock-in pool
Assay: VAV1 degradation activity, VAV1-HiBiT knock-in Jurkat luminescence assay (Example A, Table 1)
Assay type: cell-based
Conditions: VAV1-HiBiT knock-in Jurkat cells; for Dmax: Jurkat
Summary of the method: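 Jurkat cells carrying VAV1-HiBiT knock-in, plated in RPMI/10% FBS with Endurazine live-cell substrate and pre-incubated ~16 h at 37° C. Compound dosed from 10 μM stock; luminescence read 6 and 24 h later. Response normalised to plate negative/positive controls, EC50 from 3-parameter logistic fit (hillslope 1).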

[1] = luminescence read at 6 and 24 hours, read-out: VAV1 Dmax %
[2] = luminescence read at 6 and 24 hours, read-out: VAV1 Dmax %, class
[3] = luminescence read at 6 and 24 hours, read-out: VAV1 DC50
[4] = luminescence read at 6 and 24 hours, read-out: VAV1 DC50 (nM), class
[5] = luminescence read at 6 and 24 hours after compound addition, read-out: VAV1 Dmax %
[6] = luminescence read at 6 and 24 hours after compound addition, read-out: VAV1 Dmax %, class
[7] = luminescence read at 6 and 24 hours after compound addition, read-out: VAV1 DC50
[8] = luminescence read at 6 and 24 hours after compound addition, read-out: VAV1 DC50 (nM), class

## Cn1ccc(C(F)(F)F)c(-c2ccc(-c3cccc(C4CCC(=O)NC4=O)c3Cl)cc2)c1=O (stereo not shown) [Compound 428, 3-(2-chloro-4′-(1-methyl-2-oxo-4-(trifluoromethyl)-1,2-dihydropyridin-3-yl)-[1,1′-biphenyl]-3-yl)piperidine-2,6-dione]
[1]
  Dmax: 98.8%
[2]
  Dmax: > 90%
[3]
  DC50: 2.25 nM
[4]
  DC50: ≤ 100 nM

## O=C1CCC(c2cccc(-c3ccc(CN4CCCOC4=O)nc3)c2Cl)C(=O)N1 (stereo not shown) [Compound 431, 3-(2-chloro-3-(6-((2-oxo-1,3-oxazinan-3-yl)methyl)pyridin-3-yl)phenyl)piperidine-2,6-dione]
[1]
  Dmax: 23.5%
[2]
  Dmax: < 60%
[3]
  DC50: ≥ 10000 nM
[4]
  DC50: > 1000 nM

## Cn1ccc(Cn2ncc3cc(-c4cccc(C5CCC(=O)NC5=O)c4Cl)ccc32)n1 (stereo not shown) [Compound 498, 3-(2-chloro-3-(1-((1-methyl-1H-pyrazol-3-yl)methyl)-1H-indazol-5-yl)phenyl)piperidine-2,6-dione]
[5]
  Dmax: 98%
[6]
  Dmax: > 90%
[7]
  DC50: 11.8 nM
[8]
  DC50: ≤ 100 nM

## O=C1CCC(c2cccc(-c3ccc(CN4CCn5ccnc5C4=O)cc3)c2Cl)C(=O)N1 (stereo not shown) [Compound 274]
[1]
  Dmax: 69.5%
[2]
  Dmax: 60 to 90%
[3]
  DC50: 269 nM
[4]
  DC50: 100 to 1000 nM

## Cn1ccc(Cn2c(=O)oc3cc(-c4cccc(C5CCC(=O)NC5=O)c4Cl)ccc32)n1 (stereo not shown) [Compound 507, 3-(2-chloro-3-(3-((1-methyl-1H-pyrazol-3-yl)methyl)-2-oxo-2,3-dihydrobenzo[d]oxazol-6-yl)phenyl)piperidine-2,6-dione]
[5]
  Dmax: 91.8%
[6]
  Dmax: > 90%
[7]
  DC50: 28.6 nM
[8]
  DC50: ≤ 100 nM

## CC1CCCN(Cc2ccc(-c3cccc(C4CCC(=O)NC4=O)c3Cl)cc2)C1=O (stereo not shown) [Compound 287]
[1]
  Dmax: 95.5%
[2]
  Dmax: > 90%
[3]
  DC50: 12.5 nM
[4]
  DC50: ≤ 100 nM

## O=C1CCC(c2cccc(-c3ccc(OCc4cccnc4)cc3)c2Cl)C(=O)N1 (stereo not shown) [Compound 123]
[1]
  Dmax: 96.3%
[2]
  Dmax: > 90%
[3]
  DC50: 11.6 nM
[4]
  DC50: ≤ 100 nM

## N#CC1(CN2C(=O)Cc3cc(-c4cccc(C5CCC(=O)NC5=O)c4Cl)ccc32)CC1 (stereo not shown) [Compound 390, 1-((5-(2-chloro-3-(2,6-dioxopiperidin-3-yl)phenyl)-2-oxoindolin-1-yl)methyl)cyclopropane-1-carbonitrile]
[1]
  Dmax: 71.2%
[2]
  Dmax: 60 to 90%
[3]
  DC50: 615 nM
[4]
  DC50: 100 to 1000 nM

## O=C1CCC(c2cccc(-c3ccc(Cc4ncco4)c(F)c3)c2Cl)C(=O)N1 (stereo not shown) [Compound 385, 3-(2-chloro-3′-fluoro-4′-(oxazol-2-ylmethyl)-[1,1′-biphenyl]-3-yl)piperidine-2,6-dione]
[1]
  Dmax: 97.8%
[2]
  Dmax: > 90%
[3]
  DC50: 7 nM
[4]
  DC50: ≤ 100 nM

## O=C1CCC(c2cccc(-c3ccc(Cn4ccccc4=O)cc3)c2F)C(=O)N1 (stereo not shown) [Compound 149, 3-(2-fluoro-4′-((2-oxopyridin-1(2H)-yl)methyl)-[1,1′-biphenyl]-3-yl)piperidine-2,6-dione]
[1]
  Dmax: 89.6%
[2]
  Dmax: 60 to 90%
[3]
  DC50: 91.5 nM
[4]
  DC50: ≤ 100 nM

## Cn1ccc(COc2ccc(-c3ccc(Cl)c(C4CCC(=O)NC4=O)c3)c(Cl)c2)n1 (stereo not shown) [Compound 153, 3-(2′,4-dichloro-4′-((1-methyl-1H-pyrazol-3-yl)methoxy)-[1,1′-biphenyl]-3-yl)piperidine-2,6-dione]
[1]
  Dmax: 1.26%
[2]
  Dmax: < 60%
[3]
  DC50: ≥ 10000 nM
[4]
  DC50: > 1000 nM

## CN1CC(=O)N(Cc2ccc(-c3cccc(C4CCC(=O)NC4=O)c3Cl)cc2)CC12COC2 (stereo not shown) [Compound 259]
[1]
  Dmax: 90%
[2]
  Dmax: > 90%
[3]
  DC50: 28.1 nM
[4]
  DC50: ≤ 100 nM

## COC(=O)c1ccc(Cc2ccc(-c3cccc(C4CCC(=O)NC4=O)c3Cl)cc2)n1C (stereo not shown) [Compound 375, methyl 5-((2′-chloro-3′-(2,6-dioxopiperidin-3-yl)-[1,1′-biphenyl]-4-yl)methyl)-1-methyl-1H-pyrrole-2-carboxylate]
[1]
  Dmax: 98%
[2]
  Dmax: > 90%
[3]
  DC50: 14.2 nM
[4]
  DC50: ≤ 100 nM

Reference: patent publication US12257247B2 (Monte Rosa Therapeutics AG, priority 2023, dated 2025)
